In patent publication US20260053731A1, “MICRONEEDLE PARTICLES FOR ENHANCED TOPICAL TRANSDERMAL DRUG DELIVERY” (BONSENS AB, priority 2023, published 2026):

Assay: Adverse effects of daily treatment in tumor-bearing mice (weight, skin histology)
Format: in vivo, hairless NMRI Nude mice
Protocol: For hematoxylin/eosin staining (H&E), skin was isolated, immediately fixed in PFA (4% paraformaldehyde in PBS) overnight at room temperature, and then transferred to 70% ethanol prior to paraffin embedding and sectioning. Then, skin sections (8 μm) were stained with hematoxylin for 3 min after rehydration, rinsed for 10 min in running tap water and then stained for 1 min in eosin solution before being mounted on Fluoromount (DAKO). Whole slide pictures were taken by Olympus Slide View VS200 at Histological Core facility—HistoCore, Karolinska Institutet, Sweden, processed, and analyzed by OlyVIA software.
The mice were monitored for signs of discomfort (hunched posture, immobility, >10% weight loss) throughout the duration of the experiment as per ethics application.
In vivo experimentation was performed by inducing subcutaneous GTML2 tumors in mice through injecting a Tet-Off transgenic doxycycline-dependent murine cell line 40 into the flanks. […] Mice were monitored daily and were visualized with IVIS under tumor suspicion. […] Tumors were monitored and measured by IVIS imaging and by vernier calliper every week until the end of the experimentation. When measuring using a Vernier calliper, tumor volumes were calculated from the ellipsoid formula: V=4/3 πWLD. […]

C[C@H]1c2cccc(O)c2C(=O)C2=C(O)[C@]3(O)C(=O)C(C(N)=O)=C(O)[C@@H](N(C)C)[C@@H]3[C@@H](O)[C@@H]21 [Doxycycline, doxycycline]
weight of mice (long term oral doxycycline in drinking water, compared to plain water control group): slower increase in their weight | weight of mice (topical skin treatment, 11 weeks): did not alter the weight of the mice
